Test results taken from patent publication US9365559B2, “Crystal form of Dabrafenib and preparation method of use thereof” (Hangzhou Pushai Pharmaceutical Technology Co., LTD., priority 2013, dated 2016).
Entries after “also recorded” stand apart in the source; their conditions may differ.

How the values were obtained:
[1] = Dynamic vapor sorption (DVS) hygroscopicity; format: physicochemical; conditions: from DVS, 20~80% RH
Experimental: The dynamic vapor sorption analysis (DVS) data are collected by TA Instruments Q5000 TGA; the instrument control software is Thermal Advantage and the analysis software is Universal Analysis. Generally, take 1˜10 mg of the sample and place it in a platinum pan, and the weight changes of the sample are recorded during the course of the relative humidity changing from 0% to 80% and then to 0%. According to the specifics of the samples, different adsorption and desorption steps may be used.
The hygroscopicity is obtained by DVS testing of the weight changes between 20%-80% RH.

[2] = Storage stability test (XRPD before and after storing); format: physicochemical; conditions: room temperature-97% RH, -75% RH, -44% RH or oven of 40° C.
Description: The storage stability test is: storing the sample under constant conditions (i.e. constant humidity or constant temperature) for a certain time, and then comparing the XRPDs before and after storing.

[3] = Competition test (suspension of equal amounts stirred overnight, XRPD); format: physicochemical; conditions: in pure water, room temperature, stirred overnight
Description: The competition test is: take equal amount of the samples, and respectively place them in isopropanol or in a mixture of water (pure water) and ethanol (wherein the volume percentage of ethanol is 0%, 20%, 50%, 80% and 100%, respectively) to form a suspension, stir it overnight at room temperature, then compare their XRPDs.

[4] = Crystal form stability on stirring in or exposure to water, aqueous ethanol or other solvent; format: physicochemical; conditions: stirred in water or aqueous ethanol solution at room temperature or high temperature (40° C.)
[5] = Crystal form stability during wet granulation tablet preparation (XRPD); format: physicochemical
Description: The Known Crystal Form 1, the Known Crystal Form 2 and Crystal Form VI of the present invention are examined for their stability during the formulation preparation of the wet granulation process.
The preparation process of the tablet is a parallel experiment.
(1) Blend API (selected from the Known Crystal Form 1, the Known Crystal Form 2 or Crystal Form VI of the present invention), lactose (monohydrate) and microcrystalline cellulose uniformly.
(2) Make the above mixture into soft materials by using an appropriate amount of 50% aqueous ethanol solution, screen to produce the wet granules and then dry the wet granules.
(3) Granulate the dried sample, blend with polyethylene glycol 6000 uniformly and then compress into tablets.
Respectively, take XRPD tests on the following samples obtained in the formulation preparing process of the Known Crystal Form 1, the Known Crystal Form 2 and Crystal Form VI of the present invention: (Sample 1) the sample obtained by physically blending API, lactose, microcrystalline cellulose with polyethylene glycol 6000 according to the preparation formula; (Sample 2) the sample obtained by granulating with API, lactose, microcrystalline cellulose and polyethylene glycol 6000 according to the “wet granulation” process (excluding the sample obtained after the Step (3)); (Sample 3) excluding API, the sample obtained by physically blending lactose, microcrystalline cellulose with polyethylene glycol 6000 according to the preparation formula.

[6] = Crystal form stability in capsules prepared by wet granulation (XRPD); format: physicochemical
Description: The preparation of the capsules containing the crystal forms of the present invention.
3) Blend API (selected from the Known Crystal Form 1, the Known Crystal Form 2 and Crystal Form VI of the present invention), microcrystalline cellulose (avicel) and sodium carboxymethyl starch (SSG) uniformly.
4) Make the above mixture into soft materials by using an appropriate amount of 50% aqueous ethanol solution, then screen to produce the wet granules.
5) Dry the wet granules, grind and disperse uniformly and then transfer them into the capsules.

[7] = Crystal form stability in oral suspension (XRPD); format: physicochemical
Experimental: The preparation of the oral suspension containing the crystal forms of the present invention.
API (selected from Crystal Form VI of Dabrafenib of the present invention): 2 g;
Blend API (selected from Crystal Form VI of Dabrafenib of the present invention), cocklebur gum, sodium dihydrogen citrate, methylparaben, syrupus simplex and orange flavor, add water to 1,000 mL and stir the mixture uniformly. After that, divide the solution into 100 bottles with 20 mg API in each bottle.

[8] = Particle size distribution (PSD), laser diffraction; format: physicochemical; conditions: dispersant water with 2% tween-80
Description: The particle size distribution (PSD) plot is obtained using Microtrac S3500 laser diffraction particle size analyzer. The method parameters are as follows: flow velocity of the dispersant is 50%; the dispersant is water (added with 2% tween-80); the sample refractivity is 1.58; the laser source wavelength is 780 nm; and the integral mode is volume.
(§1) The morphology comparison is obtained by PLM testing of particle shape and PSD testing of particle size.

[9] = Polarized light microscopy (PLM) morphology; format: physicochemical
Description: Polarized Light Microscope (PLM) plots are collected from XP-500E polarized light microscope (by Shanghai Changfang Optical Instrument Co., Ltd). Place a small amount of powder sample on a slide glass, drip some mineral oil to disperse the powder sample, place the cover slip, then place the sample on the loading table of XP-500E polarized light microscope, choose the appropriate magnitude to observe the morphology of the sample and take pictures thereof.
as §1

[10] = Thermogravimetric analysis (TGA), thermal stability; format: physicochemical
Experimental: The thermogravimetric analysis (TGA) data are collected by TA Instruments Q500 TGA; the instrument control software is Thermal Advantage and the analysis software is Universal Analysis. Generally, take 5˜15 mg sample and place it in a platinum pan, adopt the segmental high-resolution testing mode, and under the protection of 50 mL/min dry N2, heat the sample from room temperature to 300° C. at the heating rate of 10° C./min, the weight changes of the sample during the course are recorded by TA software simultaneously.

[11] = Crystal form stability during wet granulation tablet preparation (XRPD); format: physicochemical; conditions: tablet prepared by wet granulation, stored 6 months at 40° C./75% RH
BRAFV600E-mutan melanoma = conditions: patients with BRAFV600E-mutan melanoma; cited from earlier work
[12] = system: one or more Raf-family kinases; conditions: disclosed in WO2009/137391A2 and U.S. Pat. No. 7,994,185B2; cited from earlier work

CC(C)(C)c1nc(-c2cccc(NS(=O)(=O)c3c(F)cccc3F)c2F)c(-c2ccnc(N)n2)s1 [Crystal Form VI, N-[3-[5-(2-aminopyrimidin-4-yl)-2-(tert-butyl)thiazo-4-lyl]-2-fluorophenyl]-2,6-difluorobenzenesulfonamide]
hygroscopicity (in words) [1]: not hygroscopic; also recorded: low hygroscopicity; also recorded: lower than that of the Known Crystal Form 1 | Storage stability (crystal form by XRPD) ([2]; stored 3 months in desiccator at room temperature): its crystal form did not change | Storage stability (crystal form) ([2]; stored for a long time in desiccator at room temperature): stable when stored for a long time | Competition test, comparison of stability (position in the rank order) [3]: >The Known Crystal Form 1 | crystal form stability when stirred [4]: keeps its form unchanged | crystal form of API after physical blending with excipients ([5]; XRPD of Sample 1 vs Sample 3, lactose, microcrystalline cellulose, polyethylene glycol 6000): keeps unchanged | crystal form of API in the wet granulation process ([5]; XRPD of Sample 2 vs Sample 1, 50% aqueous ethanol solution): stable; also recorded: more stable than the Known Crystal Form 1 and the Known Crystal Form 2 | crystal form stability after tableting ([5]; tablet): stable after tableting | crystal form stability in the wet granulation process or in the suspension ([5]; wet granulation process or suspension): keeps its form unchanged | crystal form in capsules ([6]; capsules prepared by wet granulation process, XRPD): stable | crystal form in capsules on storage ([6]; capsules stored 6 months at 40° C./75% RH): still stable | crystal form in oral suspension on storage ([7]; oral suspension stored 6 months at 40° C./75% RH): still stable | crystal form in oral suspension ([7]; oral suspension, XRPD): stable | D10 [8]: 7 μm | D50 [8]: 18 μm | Morphology (particle shape) [9]: fine crystals; also recorded: Fine particles | decomposition temperature ([10]; TGA, 10° C./min, dry N2): 271 °C | stability at high temperature (in words) ([10]; conclusion from DSC/TGA test results): very stable at high temperature | stability of tablet on storage [11]: still stable

CC(C)(C)c1nc(-c2cccc(NS(=O)(=O)c3c(F)cccc3F)c2F)c(-c2ccnc(N)n2)s1 [Dabrafenib, N-[3-[5-(2-aminopyrimidin-4-yl)-2-(tert-butyl)thiazo-4-lyl]-2-fluorophenyl]-2,6-difluorobenzenesulfonamide]
safety profile (BRAFV600E-mutan melanoma): acceptable safety profile | therapeutical activity (BRAFV600E-mutan melanoma): has therapeutical activities | inhibitory effect on Raf-family kinases [12]: has the inhibitory effection
